Measured values published in paper PMC467089, “Click estradiol dimers with novel aromatic bridging units: synthesis and anticancer evaluation” (Journal of Enzyme Inhibition and Medicinal Chemistry, 2024).

Key:
[1] = target: T1, porcine brain tubulin (Sus scrofa, UniProt P02550+P02554); experiment: Tubulin polymerisation assay; assay type: biochemical; conditions: 10 μmol/L, Vmax relative to DMSO
T1 construct: purchased Cytoskeleton, Denver, CO; host or cells: porcine brain (tissue-purified)
Protocol: Tubulin polymerisation assay kit (Cytoskeleton, Denver, CO) was used according to the manufacturer’s instructions. Polymerisation of porcine brain tubulin (>99% purity) was measured using an EnVision Multilabel Plate Reader (PerkinElmer, Waltham, MA) at 37 °C, in the presence of either 10 μmol/L test compounds or DMSO. Maximum polymerisation velocity (Vmax) was calculated from the polymerisation curves. Data visualisation was performed in OriginPro 2018b (b9.5.5.409) software (OriginLab Corporation, Northampton, MA)[10].

[2] = MTS cytotoxicity assay, HUVEC; assay type: cell-based; conditions: human
Protocol: (§1) The p53 deficient variant, HCT116p53−/−, was purchased from Horizon Discovery (Cambridge, UK). The daunorubicin-resistant CCRF-CEM cell line CEM-DNR bulk and paclitaxel-resistant K562-TAX sublines were developed in-house by exposing parental cell lines to escalating concentrations of daunorubicin and paclitaxel, respectively. Cells were maintained in the recommended culture medium (Sigma-Aldrich, St. Louis, MO) supplemented with 10% foetal calf serum, 100 U/mL penicillin, and 100 μg/mL streptomycin. The HUVEC line was obtained from PromoCell (Heidelberg, Germany). The cells were cultured in endothelial cell growth medium with SupplementMix for endothelial cells (PromoCell, Heidelberg, Germany). The incubation conditions were a humidified atmosphere of 95% air and 5% CO2 at 37 °C[10]. Cells were seeded in 384-well plates and after overnight incubation treated with compounds. All tested compounds were dissolved in 100% DMSO, and fourfold serial dilutions were performed using an Echo550 liquid handler (Labcyte, San Jose, CA). The experiments were performed in technical duplicates and three biological replicates. Cells were incubated with compounds for 72 h and thereafter 5 μL of MTS reagent was added to each well.

[3] = tested on: K562-TAX (paclitaxel-resistant variant of K562); experiment: MTS cytotoxicity assay, K562-TAX; assay type: cell-based, human; conditions: Homo sapiens, K562-Tax, 72 h, read-out: IC50 cytotoxic activity K562-TAX
Protocol: as §1

[4] = tested on: A549 (lung adenocarcinoma); experiment: MTS cytotoxicity assay, A549; assay type: cell-based, human; conditions: for IC50: Homo sapiens, A549, 72 h, read-out: IC50 cytotoxic activity A549
Protocol: as §1

[5] = MTS cytotoxicity assay, BJ; assay type: cell-based; conditions: human
Protocol: as §1

[6] = tested on: CCRF-CEM lymphoblasts; experiment: BrDU incorporation analysis (DNA synthesis); assay type: cell-based, human
Protocol: (§2) To further characterise the mode of action of studied compounds, we analysed the cell cycle profile of CCRF-CEM cells treated with compounds for 24 h. […] The compounds ED1–ED9 and ED12 induced arrest in G2/M phase of the cell cycle (Figure 2(A)). To differentiate between G2 block and mitotic arrest, we used phospho-histone H3 (Ser10) mitotic marker (Figure 2(B)). […] Generally, dimers induced a dose-dependent increase of sub G1 cell population with fragmented DNA except for ED2 and ED4 (Figure 2(C)). […] To assess the proliferation of treated cells, they were subjected to 5-bromo-2-deoxyuridine (BrDU) labelling. […] Analogously, changes in 5-bromouridine (BrU) incorporation were examined to monitor overall RNA synthesis.
Thirty minutes before harvesting, cells were pulse-labelled with 10 μM BrDU. After overnight fixation in ice-cold 70% ethanol, cells were resuspended in 2 M HCl for 30 min at room temperature (RT), then washed with 0.1 M Na2B4O7 and blocked with PBS containing 0.5% Tween-20 and 1% BSA. BrDU incorporation was analysed using anti-BrdU antibody clone MoBu-1 (Exbio, Vestec, Czech Republic) and a secondary anti-mouse-FITC antibody (Sigma-Aldrich, St. Louis, MO). Cells were washed with PBS and stained with 0.1 mg/mL propidium iodide and 0.5 mg/mL RNase A for 1 h at RT and analysed by flow cytometry using a 488 nm single beam laser (FACSCalibur, Becton Dickinson, Franklin Lakes, NJ). The percentage of cells with incorporated BrDU was analysed using CellQuest software.

[7] = tested on: HCT116 (colorectal adenocarcinoma); experiment: MTS cytotoxicity assay, HCT116; assay type: cell-based; conditions: Homo sapiens, HCT-116, 72 h, read-out: IC50 cytotoxic activity HCT116
Protocol: as §1

[8] = tested on: CCRF-CEM lymphoblasts; experiment: Phospho-histone H3 (Ser10) mitotic marker, flow cytometry; assay type: cell-based, human
Protocol: as §2
(§3) Treated CCRF-CEM cells were harvested, washed with ice-cold phosphate-buffered saline (PBS), fixed in cold 70% ethanol and stored at −20 °C. Prior to analysis, fixed cells were permeabilised with 0.25% Triton X-100 in PBS for 15 min, blocked in 1% bovine serum, and incubated with anti-phospho-Histone H3 (Ser^10) antibody (Merck Millipore, Burlington, MA). Subsequently, the cells were treated with 50 μg/mL RNAse, stained with propidium iodide and analysed by FACSCalibur (Becton Dickinson, Franklin Lakes, NJ) flow cytometer at 488 nm. Cell cycle distribution (G1, S, and G2/M) was analysed using ModFitLT software (Verity, Topsham, ME), and reflects only viable population prior to the fixing procedure. Particles with lower propidium iodide content than G1 phase cells were classified as non-viable cells with fragmented DNA. Flow cytometry data visualisation was performed using OriginPro 2018b (b9.5.5.409) software (OriginLab Corporation, Northampton, MA)[10].

[9] = tested on: CCRF-CEM lymphoblasts; experiment: Cell cycle analysis by flow cytometry (propidium iodide); assay type: cell-based, human
Protocol: as §2, §3

[10] = tested on: HCT116p53−/− (p53 gene null variant of HCT116); experiment: MTS cytotoxicity assay, HCT116p53−/−; assay type: cell-based; conditions: Homo sapiens, HCT-116, 72 h, read-out: IC50 cytotoxic activity HCT116p53-
Protocol: as §1

[11] = tested on: U2OS (osteosarcoma); experiment: MTS cytotoxicity assay, U2OS; assay type: cell-based, human; conditions: for IC50: Homo sapiens, U2OS, 72 h, read-out: IC50 cytotoxic activity U2OS
Protocol: as §1

[12] = tested on: CEM-DNR (daunorubicin resistant variant of CCRF-CEM); experiment: MTS cytotoxicity assay, CEM-DNR; assay type: cell-based, human; conditions: Homo sapiens, CEM-DNR, 72 h, read-out: IC50 cytotoxic activity CEM-DNR
Protocol: as §1

[13] = tested on: CCRF-CEM lymphoblasts; experiment: BrU incorporation analysis (RNA synthesis); assay type: cell-based, human
Protocol: as §2
Prior to the trypsinisation, cells were treated with 1 mM BrU for 30 min. Subsequently, the cells were fixed in 1% paraformaldehyde with 0.05% of NP-40 for 15 min at RT and stored overnight at 4 °C. Fixed cells were washed with 1% glycine in PBS and stained with primary anti-BrdU antibody clone MoBu-1 crossreacting with BrU (Exbio, Vestec, Czech Republic) for 30 min at RT, washed with PBS and labelled with secondary anti-mouse-FITC antibody (Sigma-Aldrich, St. Louis, MO). Following 1-h incubation in 1% paraformaldehyde containing 0.05% NP-40, cells were stained with propidium iodide (0.1 mg/mL) and treated with RNase A (0.5 mg/mL) for 1 h at RT. The percentage of BrU positive cells was quantified using CellQuest software.

[14] = tested on: K562 (chronic myelogenous leukaemia); experiment: MTS cytotoxicity assay, K562; assay type: cell-based; conditions: Homo sapiens, K562, 72 h, read-out: IC50 cytotoxic activity K562
Protocol: as §1

[15] = tested on: CCRF-CEM (childhood T-cell acute lymphoblastic leukaemia); experiment: MTS cytotoxicity assay, CCRF-CEM; assay type: cell-based; conditions: Homo sapiens, 72 h, read-out: IC50 cytotoxic activity CCRF-CEM
Protocol: as §1

[16] = MTS cytotoxicity assay, MRC-5; assay type: cell-based; conditions: human
Protocol: as §1

T1 sequence (P02550 whole entry): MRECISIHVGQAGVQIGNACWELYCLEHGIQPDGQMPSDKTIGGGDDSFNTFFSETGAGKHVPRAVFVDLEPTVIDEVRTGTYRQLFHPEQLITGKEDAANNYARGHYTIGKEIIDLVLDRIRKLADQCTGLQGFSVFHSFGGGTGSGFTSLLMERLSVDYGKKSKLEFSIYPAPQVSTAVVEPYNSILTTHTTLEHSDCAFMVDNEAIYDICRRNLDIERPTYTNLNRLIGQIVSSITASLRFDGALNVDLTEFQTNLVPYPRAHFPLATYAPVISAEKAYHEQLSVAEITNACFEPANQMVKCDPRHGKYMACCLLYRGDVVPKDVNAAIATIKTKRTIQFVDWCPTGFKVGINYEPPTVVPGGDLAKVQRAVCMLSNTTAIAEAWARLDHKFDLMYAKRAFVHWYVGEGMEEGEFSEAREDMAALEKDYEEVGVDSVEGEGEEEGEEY
T1 sequence (P02554 whole entry): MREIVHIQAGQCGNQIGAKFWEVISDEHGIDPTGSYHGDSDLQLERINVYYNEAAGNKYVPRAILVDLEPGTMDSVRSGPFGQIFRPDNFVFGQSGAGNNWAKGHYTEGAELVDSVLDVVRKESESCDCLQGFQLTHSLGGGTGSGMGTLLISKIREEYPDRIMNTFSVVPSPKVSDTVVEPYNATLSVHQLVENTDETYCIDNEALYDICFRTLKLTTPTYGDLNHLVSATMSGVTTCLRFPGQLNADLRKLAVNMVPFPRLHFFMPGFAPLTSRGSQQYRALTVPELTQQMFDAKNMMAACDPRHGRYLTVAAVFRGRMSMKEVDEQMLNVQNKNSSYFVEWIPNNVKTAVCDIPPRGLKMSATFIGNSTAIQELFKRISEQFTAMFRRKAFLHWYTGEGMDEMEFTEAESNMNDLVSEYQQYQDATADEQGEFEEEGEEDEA

SMILES	inhibitory activity against tubulin polymerisation (in words) [1]	IC50 at 72 h [2]	IC50 [3]	IC50 [4]	IC50 at 72 h [5]	BrDU, % of positive cells ([6]; 1×IC50, 24 h)	BrDU, % of positive cells ([6]; 5×IC50, 24 h)	IC50 [7]	pH3Ser10, % of positive cells ([8]; 1×IC50, 24 h)	pH3Ser10, % of positive cells ([8]; 5×IC50, 24 h)	<G1 (sub-G1, fragmented DNA), % of positive cells ([9]; 1×IC50, 24 h)	>G2/M (polyploidy), % of positive cells ([9]; 1×IC50, 24 h)	G0/G1, % of positive cells ([9]; 1×IC50, 24 h)	G2/M, % of positive cells ([9]; 1×IC50, 24 h)	S, % of positive cells ([9]; 1×IC50, 24 h)	<G1 (sub-G1, fragmented DNA), % of positive cells ([9]; 5×IC50, 24 h)	>G2/M (polyploidy), % of positive cells ([9]; 5×IC50, 24 h)	G0/G1, % of positive cells ([9]; 5×IC50, 24 h)	G2/M, % of positive cells ([9]; 5×IC50, 24 h)	S, % of positive cells ([9]; 5×IC50, 24 h)	other results
C[C@]12CC[C@@H]3c4ccc(O)cc4CC[C@H]3[C@@H]1CC[C@@]2(O)c1cn(Cc2cc(O)cc(Cn3cc([C@]4(O)CC[C@H]5[C@@H]6CCc7cc(O)ccc7[C@H]6CC[C@@]54C)nn3)c2)nn1 [ED2, (17β,17′β)-17,17′-[(5-Hydroxybenzene-1,3-diyl)bis(methanediyl-1H-1,2,3-triazole-1,4-diyl)]bisestra-1,3,5(10)-triene-3,17-diol]	weak in vitro inhibition	< 0.0122 µM	> 50 µM	6.69 ± 0.79 µM	> 50 µM	15.09%	21.14%	3.57 ± 0.66 µM	52.73%	47.87%	28.21%	8.33%	2.32%	64.90%	32.78%	19.20%	8.13%	0.47%	58.40%	41.13%	IC50 [10]: 4.26 ± 0.94 µM; IC50 [11]: > 50 µM; IC50 [12]: > 50 µM; BrU, % of positive cells ([13]; 1×IC50, 24 h): 41.11%; BrU, % of positive cells ([13]; 5×IC50, 24 h): 41.82%; IC50 [14]: 1.48 ± 0.19 µM; IC50 [15]: 1.7 ± 0.19 µM; IC50 at 72 h [16]: > 50 µM
CC(=O)Oc1cc(Cn2cc([C@]3(O)CC[C@H]4[C@@H]5CCc6cc(O)ccc6[C@H]5CC[C@@]43C)nn2)cc(Cn2cc([C@]3(O)CC[C@H]4[C@@H]5CCc6cc(O)ccc6[C@H]5CC[C@@]43C)nn2)c1 [ED4, 3,5-Bis({4-[(17β)-3,17-dihydroxyestra-1,3,5(10)-trien-17-yl]-1H-1,2,3-triazol-1-yl}methyl)phenyl acetate]	comparable or better inhibitory activity	0.016 ± 0.006 µM	> 50 µM	> 50 µM	> 50 µM	26.50%	7.16%	2.06 ± 0.18 µM	1.25%	0.12%	61.81%	6.75%	25.61%	40.50%	33.89%	31.27%	10.24%	8.75%	71.41%	19.84%	IC50 cytotoxic activity A549 [4]: did not exhibit activity; mitosis-specific phosphorylation of histone H3 (in words) ([8]; 1× and 5×IC50, 24 h): did not induce an increase of mitosis-specific phosphorylation of histone H3; IC50 [10]: 2.15 ± 0.1 µM; IC50 cytotoxic activity U2OS [11]: did not exhibit activity; IC50 [11]: > 50 µM; IC50 [12]: > 50 µM; BrU, % of positive cells ([13]; 1×IC50, 24 h): 66.58%; BrU, % of positive cells ([13]; 5×IC50, 24 h): 3.26%; IC50 [14]: 0.49 ± 0.04 µM; IC50 [15]: 1.09 ± 0.11 µM; IC50 at 72 h [16]: > 50 µM
Cc1cc(Cn2cc([C@]3(O)CC[C@H]4[C@@H]5CCc6cc(O)ccc6[C@H]5CC[C@@]43C)nn2)c(O)c(Cn2cc([C@]3(O)CC[C@H]4[C@@H]5CCc6cc(O)ccc6[C@H]5CC[C@@]43C)nn2)c1 [ED6, (17β,17′β)-17,17′-[(2-Hydroxy-5-methylbenzene-1,3-diyl)bis(methanediyl-1H-1,2,3-triazole-1,4-diyl)]bisestra-1,3,5(10)-triene-3,17-diol]	comparable or better inhibitory activity	< 0.0122 µM	> 50 µM	8.6 ± 2.22 µM	> 50 µM	37.25%	7.83%	1.74 ± 0.11 µM	9.07%	0.76%	11.43%	6.19%	32.46%	29.74%	37.81%	36.87%	9.85%	8.21%	73.29%	18.50%	IC50 [10]: 1.87 ± 0.13 µM; IC50 [11]: 5.06 ± 1.68 µM; IC50 [12]: > 50 µM; RNA synthesis, BrU incorporation (in words) ([13]; 1× and 5×IC50, 24 h, gated remaining live cells): high rate of RNA synthesis; BrU, % of positive cells ([13]; 1×IC50, 24 h): 67.97%; BrU, % of positive cells ([13]; 5×IC50, 24 h): 39.43%; IC50 [14]: 1.39 ± 0.21 µM; IC50 [15]: 1.54 ± 0.25 µM; IC50 at 72 h [16]: > 50 µM
